Reference: paper PMC4774911, “Biochemical Screening of Five Protein Kinases from Plasmodium falciparum against 14,000 Cell-Active Compounds” (PLoS ONE, 2016)
Several values for one entry are separate records, joined by “and”; a condition that tells them apart may be missing. Equal entries are not always repeated.

Key:
Assay in all cases: biochemical
MARK4 = target: T1, MARK4 (Homo sapiens, UniProt Q96L34)
T1 sequence (Q96L34 1-752): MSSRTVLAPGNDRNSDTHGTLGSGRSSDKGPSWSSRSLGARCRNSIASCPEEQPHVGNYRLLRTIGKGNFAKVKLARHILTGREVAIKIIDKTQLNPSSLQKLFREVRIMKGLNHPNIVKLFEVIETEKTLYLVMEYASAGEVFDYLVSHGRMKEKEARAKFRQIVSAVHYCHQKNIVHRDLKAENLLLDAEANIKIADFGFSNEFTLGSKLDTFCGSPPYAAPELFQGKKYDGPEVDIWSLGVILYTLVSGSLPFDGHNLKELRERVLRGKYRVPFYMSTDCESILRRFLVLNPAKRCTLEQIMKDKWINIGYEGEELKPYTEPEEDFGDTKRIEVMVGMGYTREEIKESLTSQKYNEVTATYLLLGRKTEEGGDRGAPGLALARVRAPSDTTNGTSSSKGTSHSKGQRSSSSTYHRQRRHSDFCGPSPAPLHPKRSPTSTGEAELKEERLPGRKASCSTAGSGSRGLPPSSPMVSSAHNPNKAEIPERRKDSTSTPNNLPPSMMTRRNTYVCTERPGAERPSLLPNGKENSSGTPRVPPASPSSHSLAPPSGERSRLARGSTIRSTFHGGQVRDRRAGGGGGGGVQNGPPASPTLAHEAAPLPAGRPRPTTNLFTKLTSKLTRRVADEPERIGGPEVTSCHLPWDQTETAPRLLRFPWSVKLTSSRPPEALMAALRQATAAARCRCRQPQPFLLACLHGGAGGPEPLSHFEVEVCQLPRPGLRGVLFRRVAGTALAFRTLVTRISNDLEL

TGFBR1 = target: T2, TGFBR1 (Homo sapiens, UniProt P36897)
T2 sequence (P36897 1-503): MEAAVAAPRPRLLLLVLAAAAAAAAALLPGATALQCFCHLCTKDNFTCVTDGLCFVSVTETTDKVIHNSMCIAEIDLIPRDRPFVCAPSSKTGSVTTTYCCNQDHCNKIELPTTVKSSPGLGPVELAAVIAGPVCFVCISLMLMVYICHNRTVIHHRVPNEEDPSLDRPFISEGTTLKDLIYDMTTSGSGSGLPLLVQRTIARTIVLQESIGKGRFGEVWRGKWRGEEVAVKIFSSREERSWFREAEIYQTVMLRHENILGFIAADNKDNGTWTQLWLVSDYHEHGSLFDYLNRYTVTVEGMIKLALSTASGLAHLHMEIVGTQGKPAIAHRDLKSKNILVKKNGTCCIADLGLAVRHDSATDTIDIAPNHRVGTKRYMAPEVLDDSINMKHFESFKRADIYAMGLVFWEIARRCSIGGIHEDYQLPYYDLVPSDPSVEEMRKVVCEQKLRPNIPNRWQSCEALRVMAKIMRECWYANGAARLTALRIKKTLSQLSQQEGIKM

MKNK1 = MKNK1 (Homo sapiens, UniProt Q9BUB5)
MAPKAPK5 = target: T3, MAPKAPK5 (Homo sapiens, UniProt Q8IW41)
T3 sequence (Q8IW41 1-473): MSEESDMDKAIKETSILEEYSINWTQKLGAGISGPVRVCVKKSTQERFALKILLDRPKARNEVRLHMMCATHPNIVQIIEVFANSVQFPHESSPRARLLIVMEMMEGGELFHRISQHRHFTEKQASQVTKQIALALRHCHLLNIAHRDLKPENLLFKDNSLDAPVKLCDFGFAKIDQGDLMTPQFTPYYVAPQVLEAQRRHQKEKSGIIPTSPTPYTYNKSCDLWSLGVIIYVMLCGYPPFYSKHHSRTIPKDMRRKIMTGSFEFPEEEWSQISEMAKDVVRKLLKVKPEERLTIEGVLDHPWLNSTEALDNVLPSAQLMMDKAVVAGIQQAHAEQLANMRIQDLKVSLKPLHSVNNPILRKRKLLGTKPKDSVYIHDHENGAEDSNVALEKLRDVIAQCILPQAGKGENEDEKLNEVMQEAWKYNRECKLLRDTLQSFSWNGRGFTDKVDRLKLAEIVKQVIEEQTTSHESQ

IRAK1 = IRAK1 (Homo sapiens, UniProt P51617)
MAST3 = MAST3 (Homo sapiens, UniProt O60307)
MINK1 = MINK1 (Homo sapiens, UniProt Q8N4C8)
CHEK1 = target: T4, CHEK1 (Homo sapiens, UniProt O14757)
T4 sequence (O14757 1-476): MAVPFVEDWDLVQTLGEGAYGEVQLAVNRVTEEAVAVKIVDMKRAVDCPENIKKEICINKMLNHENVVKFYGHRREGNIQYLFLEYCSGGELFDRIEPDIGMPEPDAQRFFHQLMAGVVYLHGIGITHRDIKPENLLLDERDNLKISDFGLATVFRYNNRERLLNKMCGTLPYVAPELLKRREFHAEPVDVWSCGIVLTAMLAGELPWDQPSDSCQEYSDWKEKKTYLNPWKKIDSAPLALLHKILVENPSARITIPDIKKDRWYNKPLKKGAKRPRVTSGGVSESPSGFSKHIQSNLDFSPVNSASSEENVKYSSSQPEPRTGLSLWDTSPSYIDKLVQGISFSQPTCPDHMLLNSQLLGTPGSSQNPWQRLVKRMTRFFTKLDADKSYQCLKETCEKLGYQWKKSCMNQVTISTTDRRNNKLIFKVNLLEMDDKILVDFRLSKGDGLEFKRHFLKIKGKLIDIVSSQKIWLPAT

Sequence of IRAK1 (P51617 whole entry): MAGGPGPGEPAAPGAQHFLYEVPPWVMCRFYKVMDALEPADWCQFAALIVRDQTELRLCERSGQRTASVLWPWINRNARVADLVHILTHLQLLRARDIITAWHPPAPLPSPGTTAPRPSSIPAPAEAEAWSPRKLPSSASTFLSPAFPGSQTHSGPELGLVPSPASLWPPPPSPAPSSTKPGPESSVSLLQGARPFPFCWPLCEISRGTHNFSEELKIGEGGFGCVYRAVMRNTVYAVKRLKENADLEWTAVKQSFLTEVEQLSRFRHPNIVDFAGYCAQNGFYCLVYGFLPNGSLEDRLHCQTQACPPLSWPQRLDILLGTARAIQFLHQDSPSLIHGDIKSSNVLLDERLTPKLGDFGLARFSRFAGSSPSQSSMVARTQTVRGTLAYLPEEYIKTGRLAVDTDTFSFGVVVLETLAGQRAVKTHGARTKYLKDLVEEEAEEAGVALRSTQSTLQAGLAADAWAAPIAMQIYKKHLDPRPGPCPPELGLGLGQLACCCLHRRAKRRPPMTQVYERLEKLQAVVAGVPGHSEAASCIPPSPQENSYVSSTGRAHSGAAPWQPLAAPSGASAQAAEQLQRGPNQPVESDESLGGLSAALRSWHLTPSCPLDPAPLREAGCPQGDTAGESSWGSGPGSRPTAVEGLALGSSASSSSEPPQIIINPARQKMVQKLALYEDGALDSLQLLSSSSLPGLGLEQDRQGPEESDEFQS
Sequence of MINK1 (Q8N4C8 whole entry): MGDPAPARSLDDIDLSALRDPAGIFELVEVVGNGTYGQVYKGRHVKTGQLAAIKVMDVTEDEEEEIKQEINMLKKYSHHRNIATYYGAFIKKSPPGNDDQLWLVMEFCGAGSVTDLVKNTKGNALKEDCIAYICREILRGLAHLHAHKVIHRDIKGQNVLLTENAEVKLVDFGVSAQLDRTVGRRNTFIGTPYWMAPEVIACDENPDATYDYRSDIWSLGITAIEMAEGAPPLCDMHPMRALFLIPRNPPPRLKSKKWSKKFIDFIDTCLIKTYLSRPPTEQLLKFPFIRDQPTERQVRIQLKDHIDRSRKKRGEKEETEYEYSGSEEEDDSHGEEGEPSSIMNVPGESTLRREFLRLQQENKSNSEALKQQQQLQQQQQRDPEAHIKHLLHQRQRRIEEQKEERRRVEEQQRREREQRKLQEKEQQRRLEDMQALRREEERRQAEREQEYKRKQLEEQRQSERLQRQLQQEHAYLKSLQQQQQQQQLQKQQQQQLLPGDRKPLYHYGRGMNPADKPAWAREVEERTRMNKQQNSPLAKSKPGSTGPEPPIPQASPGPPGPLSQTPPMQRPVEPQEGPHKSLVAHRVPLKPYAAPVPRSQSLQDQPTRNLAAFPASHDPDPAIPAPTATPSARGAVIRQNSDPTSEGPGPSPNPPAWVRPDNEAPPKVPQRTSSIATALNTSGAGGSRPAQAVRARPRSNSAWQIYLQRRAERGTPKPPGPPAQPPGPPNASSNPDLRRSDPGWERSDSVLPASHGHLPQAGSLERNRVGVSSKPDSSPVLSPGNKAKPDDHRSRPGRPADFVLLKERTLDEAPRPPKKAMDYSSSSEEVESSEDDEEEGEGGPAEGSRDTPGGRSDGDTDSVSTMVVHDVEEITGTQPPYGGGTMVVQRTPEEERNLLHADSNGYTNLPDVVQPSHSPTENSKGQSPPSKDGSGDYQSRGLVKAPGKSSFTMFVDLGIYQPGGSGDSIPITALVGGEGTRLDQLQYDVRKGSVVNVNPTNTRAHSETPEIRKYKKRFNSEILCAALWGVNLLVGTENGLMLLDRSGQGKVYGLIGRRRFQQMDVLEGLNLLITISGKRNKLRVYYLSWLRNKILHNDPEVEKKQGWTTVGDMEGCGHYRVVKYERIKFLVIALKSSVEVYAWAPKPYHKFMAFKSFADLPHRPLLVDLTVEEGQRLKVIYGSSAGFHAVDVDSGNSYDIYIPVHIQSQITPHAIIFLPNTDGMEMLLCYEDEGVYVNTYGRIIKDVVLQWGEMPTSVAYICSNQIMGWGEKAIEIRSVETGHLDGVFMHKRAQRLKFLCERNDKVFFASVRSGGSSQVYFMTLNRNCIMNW
Sequence of MKNK1 (Q9BUB5 whole entry): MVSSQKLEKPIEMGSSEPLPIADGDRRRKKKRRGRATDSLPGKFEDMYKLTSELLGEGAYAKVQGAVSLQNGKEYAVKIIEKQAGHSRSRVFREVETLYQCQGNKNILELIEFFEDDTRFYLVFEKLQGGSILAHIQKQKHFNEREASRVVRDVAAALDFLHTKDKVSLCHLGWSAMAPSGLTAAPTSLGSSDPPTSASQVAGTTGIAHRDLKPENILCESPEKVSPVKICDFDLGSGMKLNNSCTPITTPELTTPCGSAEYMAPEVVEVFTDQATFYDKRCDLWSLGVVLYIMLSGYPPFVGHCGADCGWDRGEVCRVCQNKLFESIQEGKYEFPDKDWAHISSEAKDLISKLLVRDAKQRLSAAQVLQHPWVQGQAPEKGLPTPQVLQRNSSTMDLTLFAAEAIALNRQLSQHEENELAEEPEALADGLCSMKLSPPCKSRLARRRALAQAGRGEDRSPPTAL
Sequence of MAST3 (O60307 whole entry): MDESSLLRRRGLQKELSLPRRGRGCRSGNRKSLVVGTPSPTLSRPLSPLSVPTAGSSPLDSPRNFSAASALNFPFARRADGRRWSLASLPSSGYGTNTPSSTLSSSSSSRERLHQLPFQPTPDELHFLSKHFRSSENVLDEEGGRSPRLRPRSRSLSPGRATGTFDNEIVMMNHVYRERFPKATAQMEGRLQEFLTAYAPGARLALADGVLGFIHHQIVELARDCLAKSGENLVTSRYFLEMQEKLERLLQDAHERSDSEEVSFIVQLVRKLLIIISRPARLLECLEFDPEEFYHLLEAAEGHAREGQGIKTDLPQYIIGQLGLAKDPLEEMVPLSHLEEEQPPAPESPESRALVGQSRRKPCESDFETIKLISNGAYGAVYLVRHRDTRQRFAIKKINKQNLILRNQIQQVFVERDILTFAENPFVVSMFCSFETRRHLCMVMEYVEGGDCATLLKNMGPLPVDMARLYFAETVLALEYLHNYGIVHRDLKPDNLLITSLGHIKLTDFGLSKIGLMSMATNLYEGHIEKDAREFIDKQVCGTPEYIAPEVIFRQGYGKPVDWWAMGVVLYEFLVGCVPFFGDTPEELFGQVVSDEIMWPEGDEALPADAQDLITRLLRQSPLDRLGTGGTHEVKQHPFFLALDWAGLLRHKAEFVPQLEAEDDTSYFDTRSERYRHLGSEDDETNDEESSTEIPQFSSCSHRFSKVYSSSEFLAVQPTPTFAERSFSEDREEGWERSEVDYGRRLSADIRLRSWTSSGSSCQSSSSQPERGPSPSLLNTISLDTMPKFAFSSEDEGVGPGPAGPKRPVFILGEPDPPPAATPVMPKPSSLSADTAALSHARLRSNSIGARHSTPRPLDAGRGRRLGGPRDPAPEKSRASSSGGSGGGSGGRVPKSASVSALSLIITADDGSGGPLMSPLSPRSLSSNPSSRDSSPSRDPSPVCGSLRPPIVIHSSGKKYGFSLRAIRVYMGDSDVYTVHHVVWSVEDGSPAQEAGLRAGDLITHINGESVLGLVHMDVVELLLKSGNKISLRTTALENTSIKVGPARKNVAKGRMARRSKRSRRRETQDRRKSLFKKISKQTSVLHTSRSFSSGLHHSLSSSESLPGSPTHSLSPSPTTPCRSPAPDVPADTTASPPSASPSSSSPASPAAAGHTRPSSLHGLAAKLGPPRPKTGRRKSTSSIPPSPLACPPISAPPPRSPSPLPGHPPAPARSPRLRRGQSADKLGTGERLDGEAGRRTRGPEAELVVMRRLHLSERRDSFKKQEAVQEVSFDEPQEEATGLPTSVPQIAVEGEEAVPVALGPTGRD

CN(C)CC(O)COc1ccc(Nc2ncc([N+](=O)[O-])c(Nc3ccccc3O)n2)cc1.O=C(O)C(F)(F)F (stereo not shown) [TCMDC-141399]
IC50 (MARK4): 12 µM and 7.6 µM | IC50 (TGFBR1): > 20 µM | IC50 (MKNK1): > 20 µM | IC50 (MAPKAPK5): 0.32 µM

Cl.NCC1(c2nc(-c3ccc(Cl)c(O)c3)c(-c3ccncc3)[nH]2)CCCCC1 [TCMDC-141154]
IC50 (MARK4): > 20 µM | IC50 (TGFBR1): 0.095 µM and 0.14 µM | IC50 (IRAK1): > 20 µM | IC50 (MAST3): > 20 µM | IC50 (MKNK1): > 20 µM | IC50 (MAPKAPK5): > 20 µM | IC50 (MINK1): 1.4 µM | IC50 (CHEK1): > 20 µM

CN1CCN(c2ccc(Nc3ncc(C#N)c(Nc4ccccc4C(N)=O)n3)cc2)CC1.Cl [TCMDC-134116]
IC50 (IRAK1): 0.16 µM and 0.14 µM | IC50 (MAST3): 0.16 µM | IC50 (MINK1): 0.29 µM | IC50 (CHEK1): 0.22 µM
